The results in this text go back to publication PMC8041370, “Limonoids from Guarea guidonia and Cedrela odorata: Heat Shock Protein 90 (Hsp90) Modulator Properties of Chisomicine D” (Journal of Natural Products, 2021).

A value given as a limit tells only on which side of the number the result lay.

Data set [1] deals with U937 (human myeloid leukemia) cell line. Description: MTT cell viability, U937. The following applies: U-937, 48 h, read-out: IC50 growth inhibition U937. Type of data set: cell-based. The method, then:
(§1) HeLa (cervical carcinoma) and U937 (pro-monocytic, human myeloid leukemia) cell lines were purchased from the American Type Cell Culture (ATCC) (Rockville, MD, USA). HeLa cells were maintained in DMEM, and U937 were cultured in RPMI 1640, both supplemented with 10% FBS, 100 mg/L streptomycin, and penicillin 100 IU/mL at 37 °C in a humidified atmosphere of 5% CO2. To ensure logarithmic growth, cells were subcultured every 2 days. Stock solutions of compound in DMSO were stored in the dark at 4 °C. Appropriate dilutions were prepared in culture medium immediately prior to use. […] PBMCs were isolated from buffy coats of healthy donors (kindly provided by the Blood Center of the Hospital of Battipaglia, Italy) by using standard Ficoll-Hypaque gradients. PBMCs were incubated with DMSO or compound 1 at 30 μM for 48 h. […] The number of viable cells was quantified by the MTT [3-(4,5-dimethylthiazol-2-yl)-2,5-diphenyl tetrazolium bromide] assay. Absorption at 550 nm for each well was assessed using Multiskan GO (Thermo Scientific). Half-maximal inhibitory concentration (IC50) values were calculated using GraphPad Prism 8. Experiments were performed in technical triplicates and repeated two times with similar results.

In data set [2] the test system is HeLa (epithelial carcinoma) cells. Description: MTT cell viability, HeLa. As to conditions: Homo sapiens, 48 h. Type of data set: cell-based. The method, then:
as §1

The test system of data set [3] is PBMC (nontumor human peripheral blood mononuclear cell line). Briefly: Cytotoxicity on PBMC. The data set is classed as cell-based. As to conditions: 30 μM, 48 h. The method, then:
HeLa (cervical carcinoma) and U937 (pro-monocytic, human myeloid leukemia) cell lines were purchased from the American Type Cell Culture (ATCC) (Rockville, MD, USA). HeLa cells were maintained in DMEM, and U937 were cultured in RPMI 1640, both supplemented with 10% FBS, 100 mg/L streptomycin, and penicillin 100 IU/mL at 37 °C in a humidified atmosphere of 5% CO2. To ensure logarithmic growth, cells were subcultured every 2 days. Stock solutions of compound in DMSO were stored in the dark at 4 °C. Appropriate dilutions were prepared in culture medium immediately prior to use. […] PBMCs were isolated from buffy coats of healthy donors (kindly provided by the Blood Center of the Hospital of Battipaglia, Italy) by using standard Ficoll-Hypaque gradients. PBMCs were incubated with DMSO or compound 1 at 30 μM for 48 h.

For data set [4], the system named is U937 cells. Briefly: Cell cycle by propidium iodide flow cytometry and p-CDC2/CDC2 Western blot. The data set is classed as cell-based, human. The method, then: (§2) U937 cells were preliminarily synchronized by serum starvation and then seeded in six-well plates at a cell density of 8 × 10^5 cell/well. After 24 h, they were incubated for 48 h in the presence of compound 1 at IC50 concentration (20 μm), with phenethyl isothiocyanate and DMSO as a positive and negative control, respectively. Apoptosis was evaluated by an annexin V–FITC/PI apoptosis detection kit (Dojindo EU GmbH, Munich, Germany), and the cell cycle was evaluated by propidium iodide (PI) staining of permeabilized cells, according to the available protocol, and flow cytometry (BD FACSCalibur flow cytometer, Becton Dickinson, San Jose, CA, USA). Data from 5000 events per sample were collected. The percentages of the elements in the hypodiploid region and in G1, S, and G2 phases of the cell cycle and apoptosis data were calculated using FlowJo (BD Biosciences). Experiments were performed in technical triplicates and repeated two times with similar results.
(§3) Whole cell lysates (U937) for immunoblot analysis were lysed with RIPA buffer (20 mM Tris-HCl pH 7.5, 150 mM NaCl, 1 mM EDTA, 1% NP-40, 1% sodium deoxycholate, 2.5 mM sodium pyrophosphate) supplemented with protease and phosphatase inhibitors. Protein concentration was determined by a Bradford solution for protein determination (Applichem) using BSA as a standard. Proteins were fractionated on SDS-PAGE, transferred into nitrocellulose membranes, and immunoblotted with the appropriate primary antibody. Signals were visualized with the appropriate horseradish peroxidase-conjugated secondary antibody and enhanced chemiluminescence (Amersham Biosciences-GE Healthcare, NY, USA). Densitometric analyses were carried out using the ImageJ software. Experiments were performed in duplicate.

Data set [5] has as its system U937 cells. Briefly: Apoptosis by annexin V-FITC/PI flow cytometry and caspase 3 Western blot. The data set is classed as cell-based, human. As to conditions: U937, 20 μM. The method, then: as §2
Whole cell lysates (U937) for immunoblot analysis were lysed with RIPA buffer (20 mM Tris-HCl pH 7.5, 150 mM NaCl, 1 mM EDTA, 1% NP-40, 1% sodium deoxycholate, 2.5 mM sodium pyrophosphate) supplemented with protease and phosphatase inhibitors. Protein concentration was determined by a Bradford solution for protein determination (Applichem) using BSA as a standard. […]

Data set [6] has as its target T1, Hsp90α (Homo sapiens, UniProt P07900). Briefly: Hsp90 ATPase activity. Type of data set: biochemical. The following applies: 10 or 20 μM; data not shown.
The subject of data set [7] is Hsp90α client protein levels in U937 cells. Briefly: Western blot of Hsp90α, Hsp70 and Hsp90 client protein levels. The data set is classed as cell-based, human. The method, then: as §3
Proteins extracted from U937 cells following a 24 h treatment with 20 μM solution of compound 1 and from untreated cells (control) were fractionated on SDS-PAGE. The bands corresponding to the intact and truncated forms of Hsp90 (apparent molecular weight 90 and 70 kDa, respectively) were excised and subjected to a classical in-gel tryptic digestion. The resulting peptide mixtures were analyzed in positive ion full scan and dependent scan MS mode on a Q-Exactive Orbitrap mass spectrometer coupled with a nanoUltimate UHPLC system (Thermo Fisher Scientific, Waltham, MA, USA). Peptide separation was performed on a capillary EASY-Spray PepMap column (0.075 mm × 50 mm, 2 μm, Thermo Fisher Scientific) using aqueous 0.1% formic acid (A) and CH3CN containing 0.1% formic acid (B) as mobile phases and a linear gradient from 3% to 40% of B in 45 min and a 300 nL/min flow rate. Mass spectra were acquired over an m/z range from 400 to 1300. Dependent scan data were preliminarily analyzed to confirm the presence of Hsp90 in the digested gel-bands. To this aim, MS and MS/MS data underwent Mascot software (v2.5, Matrix Science, Boston, MA, USA) analysis using the nonredundant data bank UniprotKB/Swiss-Prot (release 2020_03). Parameter sets were as follows: trypsin cleavage; carbamidomethylation of cysteine as a fixed modification and methionine oxidation as a variable modification; a maximum of two missed cleavages; false discovery rate (FDR), calculated by searching the decoy database, 0.05. The data analysis of protein was carried out using the gene ontology tool in the UniProt Knowledgebase (UniProtKB; http://www.uniprot.org). Based on the achieved results, full mass chromatograms were analyzed using Xcalibur software by generating extracted ion spectra specific for the Hsp90 tryptic peptides completely covering the protein amino acidic sequence.

For data set [8], the target named is T1, Hsp90α. Description: Surface plasmon resonance binding to immobilized Hsp90α. The following applies: SPR, 25 °C, mean ± standard deviation (n = 3). On the set-up: purchased Stress-gen Bioreagents Corporation, Victoria, Canada SPP-776. The method, then:
1 and 4 μM), and, for each sample, a complete binding study was carried out in triplicate. The experiments were performed at 25 °C, using a flow rate of 50 μL/min, with 60 s monitoring of association and 300 s monitoring of dissociation. Changes in mass, due to the binding response, were recorded as resonance units (RU). To obtain the dissociation constant (KD), these responses were fit to a 1:1 Langmuir binding model by nonlinear regression, using the BiaEvaluation sofware program (GE Healthcare). Simple interactions were suitably fitted to a single-site bimolecular interaction model (A + B = AB), yielding a single KD.

The mark [9] stands for this setting: U937, 20 μM, 48 h, PI staining, Figure 2B.

Regarding `C/C=C(\C)C(=O)O[C@@H]1/C=C\[C@]2(O)C3=CC(=O)O[C@@H](c4ccoc4)[C@]3(C)CC[C@]2(O)[C@]2(C)C(=O)C[C@@]1(C)[C@@H]2CC(=O)OC` (relative stereo) [Compound 1, 8-hydro-(8S*,9S*)-dihydroxy-14,15-en-chisomicine A], in data set [1], the IC50 worked out at 20 ± 3 µM. In addition, in data set [2], the IC50 is greater than 50 µM. Further, in data set [3], the “cytotoxic activity on PBMC” value is reported as “did not show any cytotoxic activity”. Besides, in the data set on U937 cells [4] (setting [9]), the G1 phase is reported as 53,1, the G2 phase was 16,7 and the S phase was 12,3. The “effect on cell cycle” value in the data set with U937 cells [4] (U937, 48 h (1 at 20 μM)) was “G2 phase cell cycle arrest”. The p-CDC2/CDC2 ratio entry with U937 cells [4] (U937, Western blot, 10 and 20 μM) is “increase”. Besides, the “increase of late apoptosis compared to the negative control” value in the data set on U937 cells [5] (48 h, annexin V/FITC) is recorded as “about 15%”. Moreover, the “pro-caspase 3 cleavage” value in the data set on U937 cells [5] (Western blot) is “induced the cleavage of pro-caspase 3”. At Hsp90α [6], the “inhibition of Hsp90 ATPase activity” value is given as “did not affect its enzymatic efficiency”. Also, in data set [7] (U937, 30 μM, 48 h), the Hsp70 cellular levels entry is given as “affected”. In data set [7] (U937, 10, 20 and 30 μM, 48 h), the ERK concentration result was “no significant variation”, the Hsp90 amount entry was “down-regulated in a dose-dependent manner” and the p-ERK2 level result is listed as “strong depletion”. Also, in data set [7] (U937, 20 and 30 μM, 48 h), the Hsp90 cleavage entry is reported as “Hsp90 cleaved form, with an apparent molecular weight of 70 kDa, was observed”. Further, in data set [7] (U937, 48 h, regardless of phosphorylation), the “level of both isoforms of JNK” value is reported as “significantly reduced”. At Hsp90α [8], this compound returned a Kd of 0.0182 ± 0.0019 µM.
